Results taken from patent US12187754B2, “LpxC inhibitors and uses thereof” (Blacksmith Medicines, Inc., priority 2021, dated 2025).

Tests used:
[1] = system: E. coli; test: MIC against gram-negative bacterial cell lines (E. coli); assay type: cell-based; conditions: Escherichia coli
[2] = system: S. aureus; test: Inhibition of gram-positive bacterial cell lines; assay type: cell-based
[3] = Thermal solubility; assay type: physicochemical; conditions: aqueous buffer, thermodynamic from solid; 100 mM potassium phosphate buffer pH 7.4, 24 h, 25° C.
Experimental: Solubility of the compounds was assessed in 100 mM potassium phosphate buffer at pH 7.4 after 24 hours at room temperature.
Accurately weighed K2HPO4 (2.79 g) and KH2PO4 (0.54 g) were dissolved in 90 mL of Milli-Q water and mixed well. Volume was made upto 200 mL with Milli-Q water and mixed well. The prepared phosphate buffer was stored at 2-8° C. and used within a month.
Approximately 30 mg of test compound was added to approximately 1 mL of the potassium phosphate buffer, pH 7.4. If the visual inspection indicated precipitation, no further compound is added. If the visual inspection indicated a clear solution, further increments of compound were added until the solution was no longer clear.
Test compounds and assay controls (caffeine) were further incubated for 24 h at 25° C. temperature on a thermomixer at a shaking speed of 1200 rpm. After incubation, the samples (200 μL) were transferred to a filtration plate to which a plate was attached at bottom for collecting the filtrate. The plate was centrifuged at 4000 rpm for 2 min and the filtrate was collected in the attached bottom plate. The filtrates were diluted using filtered buffer based on the initial amount of compound added. All samples were analysed by HPLC-UV method against 8 point calibration curve with concentrations ranging from 2.5 μg/mL to 1000 μg/mL.

[4] = Solubility under physiological conditions; assay type: physicochemical; conditions: for example at pH 7.4
[5] = system: E. coli UTI 89; test: Mouse urinary tract infection model, E. coli UTI 89; assay type: in vivo; conditions: for Bladder Terminal Burden / Kidney Terminal Burden / Urine Terminal Burden: mice, 96 h post infection
Experimental: (§1) Compound A and its prodrugs as disclosed herein were tested in an in vivo mouse model for Urinary Tract Infection. Briefly, mice were infected with E. coli UTI 89 to cause a UTI infection and were treated with compounds disclosed herein.
(§2) Five days prior to infection, C3H/HeNR female mice were preconditioned with drinking water containing 5% glucose. Mice were rendered unconscious using parenteral anaesthesia (ketamine/medetomidine) then 0.05 mL of a bacterial suspension of E. coli UTI 89 (1.2×10^9 CFU/mL (6.2×10^7 CFU/mouse) was administered transurethrally into the bladder to cause an ascending UTI infection.
IV or PO treatment was started 24 h post infection with 3, 10, 15 mg/kg/dose IV Compound A; 3, 10, 15.30 mg/kg/dose IV Compound 1; 3, and 10 mg/kg/dose IV Compound 2; and 30 mg/kg/dose oral of either Compound 1 or 2 administered every 12 hours for 3 days (six doses total). Ciprofloxacin was given as a control at 10 mg/kg/dose IV every 12 hours. Compound A was formulated in 10% DMSO, 5% Cremophor, 85% SFI; the remaining compounds used a sterile phosphate-buffered saline (PBS) formulation. Each group was comprised of five mice each.
(§3) Urine, bladder, and kidney were harvested at 24 h (pre-treatment group only) and 96 h post infection and quantitatively cultured.

[6] = system: K. pneumoniae BAA-1705; test: Mouse urinary tract infection model, K. pneumoniae BAA-1705; assay type: in vivo; conditions: for Bladder Terminal Burden / Kidney Terminal Burden / Urine Terminal Burden: mice, 96 hours
Experimental: as §1, §2
[…]; […]; […]; […] for 3 days (six doses total). Ciprofloxacin was given as a control at 10 mg/kg/dose IV every 12 hours. Compound A was formulated in 10% DMSO, 5% Cremophor, 85% SFI; the remaining compounds used a sterile phosphate-buffered saline (PBS) formulation. Each group was comprised of five mice each.
as §3
The experiment was repeated using K. pneumoniae BAA-1705 (MDR; MIC90 strain). Table 5 and FIG. 2 summarize the results, showing the average terminal burden of K. pneumoniae BAA-1705 in urine, bladder, and kidney at the conclusion of the study (96 hours).

[7] = system: K. pneumoniae; test: MIC against gram-negative bacterial cell lines (K. pneumoniae); assay type: cell-based; conditions: Klebsiella pneumoniae
[8] = 3 mg/kg/dose IV every 12 hours for 3 days
[9] = 10 mg/kg/dose IV every 12 hours for 3 days
[10] = 15 mg/kg/dose IV every 12 hours for 3 days
[11] = E. coli UTI 89, mice, IV administration

## N#CC1CN(C[C@@H](Cc2nc[nH]c(=O)c2O)c2ccc(C#Cc3ccc(CN4CCOCC4)cc3)cc2)C1 [Compound A, (S)-1-(3-(5-hydroxy-6-oxo-1,6-dihydropyrimidin-4-yl)-2-(4-((4-(morpholinomethyl)phenyl)ethynyl)phenyl)propyl)azetidine-3-carbonitrile]
[1]
  MIC: < 1 µg/mL
[2]
  inhibition of gram-positive bacterial cell lines: does not inhibit
[3]
  solubility at 24 h: < 50 µg/mL
[4]
  solubility: < 1000 µg/mL
[5]; [8]
  Bladder Terminal Burden: 2.57 × 10^5 CFU/mL
  Kidney Terminal Burden: 3.72 × 10^3 CFU/mL
  Urine Terminal Burden: 3.03 × 10^5 CFU/mL
[5]; [9]
  Bladder Terminal Burden: 3.48 × 10^5 CFU/mL
  Kidney Terminal Burden: 4.44 × 10^2 CFU/mL
  Urine Terminal Burden: 6.26 × 10^4 CFU/mL
[5]; [10]
  Bladder Terminal Burden: 2.62 × 10^5 CFU/mL
  Kidney Terminal Burden: 1.21 × 10^2 CFU/mL
  Urine Terminal Burden: 3.78 × 10^3 CFU/mL
[5]; E. coli UTI 89, mice
  bacterial burden in urine relative to vehicle-treated controls: statistically significant reductions in bacterial burden in urine
[5]; [11]
  bacterial burden in bladder relative to vehicle-treated controls: reductions in bacterial burden in bladder
  bacterial burden in kidney relative to vehicle-treated control: statistically significant reductions in bacterial burden in kidney
[6]; 10 mg/kg/dose IV
  Bladder Terminal Burden: 9.29 × 10^1 CFU/mL
  Kidney Terminal Burden: 3.47 × 10^2 CFU/mL
  Urine Terminal Burden: 2.72 × 10^0 CFU/mL
[6]; 30 mg/kg/dose IV
  Bladder Terminal Burden: BLoD
  Kidney Terminal Burden: 7.48 × 10^1 CFU/mL
  Urine Terminal Burden: 7.41 × 10^3 CFU/mL
[6]; 60 mg/kg/dose IV
  Bladder Terminal Burden: BLoD
  Kidney Terminal Burden: 3.17 × 10^0 CFU/mL
  Urine Terminal Burden: BLoD
[6]; 90 mg/kg/dose PO
  Bladder Terminal Burden: BLoD
  Kidney Terminal Burden: 3.01 × 10^1 CFU/mL
  Urine Terminal Burden: 7.06 × 10^0 CFU/mL
[6]; K. pneumoniae BAA-1705, mice
  bacterial burden in kidney relative to vehicle-treated controls and the ciprofloxacin control: statistically significant reductions in bacterial burden in kidney
[6]; K. pneumoniae BAA-1705, mice, except for the 30 mg/kg IV Compound A experiment
  bacterial burden in urine relative to vehicle-treated controls and the ciprofloxacin control: statistically significant reductions in bacterial burden in urine
[7]
  MIC: < 1 µg/mL
